Reference: ChEMBL document CHEMBL6083283, “Discovery of Dual CDK6/BRD4 Inhibitor Inducing Apoptosis and Increasing the Sensitivity of Ferroptosis in Triple-Negative Breast Cancer” (J Med Chem, 2024)

Experiments:
[1] = target: T1, Bromodomain-containing protein 2 (Homo sapiens, UniProt P25440)
Description: Inhibition of BRD2 BD2 (unknown origin)

[2] = target: T1, Bromodomain-containing protein 2; remark: listed apart in the source
Description: Inhibition of BRD2 BD1 (unknown origin)

[3] = target: CDK9/cyclin T1 (Homo sapiens) (UniProt O60563+P50750); details: dose 500.0 nM
Description: Inhibition of CDK9/cyclinT1 (unknown origin) at 500 nM relative to control

CDK6/cyclin D3 = CDK6/cyclin D3 (Homo sapiens, UniProt Q00534); experiment: Inhibition of full length recombinant human CDK6/CyclinD3 co-expressed by baculovirus in Sf9 insect cells using histone H1 as substrate by ADP-glo kinase assay
MDA-MB-231 [4] = experiment: cells; details: Homo sapiens, MDA-MB-231, 72 h
Description: Antiproliferative activity against human MDA-MB-231 cells assessed as cell viability incubated for 72 hrs by MTT assay

in vitro [5] = details: human, MCF-10A cells
Description: Antiproliferative activity against human MCF-10A cells assessed as cell viability incubated for 72 hrs by MTT assay

MDA-MB-231 [6] = experiment: Antitumor activity against human MDA-MB-231 cells xenografted in BALB/c nude mouse assessed as tumor growth inhibition at 50 mg/kg, ip administered for 21 days; details: MDA-MB-231, 504 h, read-out: TGI
BT-549 [7] = experiment: cells; details: Homo sapiens, BT-549, 72 h
Description: Antiproliferative activity against human BT-549 cells assessed as cell viability incubated for 72 hrs by MTT assay

in vitro [8] = details: human, liver microsomes
Description: Metabolic stability in human liver microsome assessed as intrinsic clearance

in vitro [9] = details: human, liver microsomes; remark: listed apart in the source
[10] = Antiproliferative activity against human MCF-10A cells assessed as cell viability incubated for 72 hrs in presence of Palbociclib by MTT assay; format: toxicity, cell-based
MDA-MB-231 [11] = experiment: Antiproliferative activity against human MDA-MB-231 cells assessed as cell viability incubated for 72 hrs in presence of Palbociclib by MTT assay; format: functional, cell-based; details: MDA-MB-231, 72 h
BT-549 [12] = experiment: Antiproliferative activity against human BT-549 cells assessed as cell viability incubated for 72 hrs in presence of Palbociclib by MTT assay; format: functional, cell-based; details: BT-549, 72 h

CDK6/cyclin D3, sequence (P30281 whole entry): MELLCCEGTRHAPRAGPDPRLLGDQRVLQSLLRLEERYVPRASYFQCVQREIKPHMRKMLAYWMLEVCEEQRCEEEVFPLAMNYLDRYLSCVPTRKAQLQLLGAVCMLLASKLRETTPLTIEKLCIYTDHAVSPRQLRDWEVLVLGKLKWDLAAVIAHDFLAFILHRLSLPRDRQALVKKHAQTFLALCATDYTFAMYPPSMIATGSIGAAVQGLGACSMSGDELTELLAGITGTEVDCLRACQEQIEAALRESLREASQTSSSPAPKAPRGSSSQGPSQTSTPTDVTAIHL
CDK6/cyclin D3, sequence (Q00534 whole entry): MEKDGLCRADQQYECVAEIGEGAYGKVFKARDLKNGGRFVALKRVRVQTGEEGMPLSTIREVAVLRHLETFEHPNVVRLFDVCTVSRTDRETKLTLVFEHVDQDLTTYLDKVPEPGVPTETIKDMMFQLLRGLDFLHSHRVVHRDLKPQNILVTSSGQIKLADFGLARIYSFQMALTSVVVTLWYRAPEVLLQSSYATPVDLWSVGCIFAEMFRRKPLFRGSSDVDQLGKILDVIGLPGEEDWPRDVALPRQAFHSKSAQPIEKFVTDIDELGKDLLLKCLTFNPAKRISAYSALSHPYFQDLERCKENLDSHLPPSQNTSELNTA
T1 sequence (P25440 whole entry): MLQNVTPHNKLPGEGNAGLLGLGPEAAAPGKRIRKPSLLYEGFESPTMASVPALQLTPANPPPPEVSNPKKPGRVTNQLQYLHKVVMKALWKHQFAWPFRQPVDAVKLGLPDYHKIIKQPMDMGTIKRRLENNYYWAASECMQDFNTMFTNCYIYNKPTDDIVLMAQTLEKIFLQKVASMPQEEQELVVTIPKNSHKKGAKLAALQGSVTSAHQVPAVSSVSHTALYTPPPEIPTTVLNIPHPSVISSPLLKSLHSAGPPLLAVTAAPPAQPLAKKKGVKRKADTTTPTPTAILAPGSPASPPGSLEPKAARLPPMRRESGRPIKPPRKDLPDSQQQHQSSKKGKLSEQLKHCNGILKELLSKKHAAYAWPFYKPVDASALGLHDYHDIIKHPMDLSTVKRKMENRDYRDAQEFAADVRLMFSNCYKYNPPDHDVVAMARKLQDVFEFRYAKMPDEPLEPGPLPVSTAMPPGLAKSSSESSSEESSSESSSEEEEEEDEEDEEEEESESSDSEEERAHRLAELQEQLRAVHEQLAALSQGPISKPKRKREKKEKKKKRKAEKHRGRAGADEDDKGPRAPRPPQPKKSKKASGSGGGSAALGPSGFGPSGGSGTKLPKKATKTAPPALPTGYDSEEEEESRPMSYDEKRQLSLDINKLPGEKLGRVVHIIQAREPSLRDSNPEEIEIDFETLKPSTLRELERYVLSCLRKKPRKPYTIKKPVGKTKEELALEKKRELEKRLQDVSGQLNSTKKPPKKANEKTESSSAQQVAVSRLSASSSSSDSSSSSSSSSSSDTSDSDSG

Work on `COc1cc(OC)c2c(=O)[nH]c(-c3ccc(C(=O)N4CC5(CCN(c6ncc7c(C)cc(=O)n(C8CCCC8)c7n6)CC5)C4)cc3)nc2c1` yielded an IC50 [1] greater than 1 µM, an IC50 [2] greater than 1 µM and an inhibition [3] of 43.4%. It also gave an IC50 (CDK6/cyclin D3) of 0.036 µM.

In the case of `CC(=O)c1c(C)c2cnc(Nc3ccc(N4CCNCC4)cn3)nc2n(C2CCCC2)c1=O` [PALBOCICLIB], the IC50 (MDA-MB-231 [4]) is reported as 16.3 µM, the IC50 at 72 h (in vitro [5]) is reported as greater than 20 µM and the inhibition in vivo at 50 mg/kg (MDA-MB-231 [6]) is reported as 22%. The IC50 (BT-549 [7]) was 15.3 µM.

For `COc1cc(OC)c2c(=O)[nH]c(-c3ccc(C(=O)N4CCCC(CNc5ncc6c(C)cc(=O)n(C7CCCC7)c6n5)C4)cc3)nc2c1` (stereo not drawn), the IC50 (CDK6/cyclin D3) was 0.297 µM.

Compound `Cc1sc2c(c1C)C(c1ccc(Cl)cc1)=N[C@@H](CC(=O)OC(C)(C)C)c1nnc(C)n1-2` has a microsomal CLint (in vitro [8]) of 39.5 µL/min/mg, a half-life (in vitro [9]) of 35.4 min and an IC50 (MDA-MB-231 [4]) of 6.44 µM. The IC50 at 72 h (in vitro [5]) was greater than 20 µM, the IC50 at 72 h [10] was greater than 20 µM and the inhibition in vivo at 50 mg/kg (MDA-MB-231 [6]) was 37.6%. The IC50 (MDA-MB-231 [11]) was 1.72 µM, the IC50 (BT-549 [12]) was 1.05 µM and the IC50 (BT-549 [7]) was 5.06 µM.
